Reference: patent US12091411B2, “IRAK degraders and uses thereof” (Kymera Therapeutics, Inc., priority 2022, dated 2024)
Like-named read-outs stand apart in the source and are kept apart here.

Biological target: T1, IRAK4 (Homo sapiens, UniProt Q9NWZ3)
T1 construct: Degradation of IRAK4 in OCI-LY10 was quantitatively measured using Meso Scale Discovery technology; endogenous in cells; host or cells: OCI-LY10
T1 sequence (Q9NWZ3 1-460): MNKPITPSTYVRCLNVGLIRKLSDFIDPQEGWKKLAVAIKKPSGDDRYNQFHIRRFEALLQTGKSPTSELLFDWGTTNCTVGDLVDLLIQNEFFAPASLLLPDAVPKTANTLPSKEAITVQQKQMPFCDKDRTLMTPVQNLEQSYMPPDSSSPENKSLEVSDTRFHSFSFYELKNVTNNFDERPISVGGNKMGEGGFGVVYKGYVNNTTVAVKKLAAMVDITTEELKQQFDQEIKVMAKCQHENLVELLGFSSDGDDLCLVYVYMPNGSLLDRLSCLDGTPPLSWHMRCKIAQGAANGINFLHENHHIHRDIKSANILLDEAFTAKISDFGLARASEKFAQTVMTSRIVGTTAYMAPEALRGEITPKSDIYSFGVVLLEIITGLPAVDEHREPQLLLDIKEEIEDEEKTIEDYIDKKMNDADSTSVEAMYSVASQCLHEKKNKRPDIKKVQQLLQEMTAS
Experiment: IRAK4 MSD Degradation in OCI-LY10
Format: cell-based
Settings: OCI-LY10 cells, MSD
How it was run: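 OCI-LY10 cells exposed to 8-point 1:3 compound series (top 1 to 10 μM) for 4 to 24 h at 37 °C, 5% CO2. Lysate IRAK4 quantified by MSD sandwich immunoassay. DC50 from three-parameter logistic fit, binned A (<0.01 μM) to D (>0.2 μM or not tested).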

[1] = 4 hrs incubation, read-out: IRAK4 degradation in OCI-LY10 at 4 hrs: DC50
[2] = 24 hrs incubation, read-out: IRAK4 degradation in OCI-LY10 at 24 hrs: DC50

DC50 [1] [nM]	DC50 [2] [nM]	SMILES
> 200	–	CN(CC1CCN(c2cccc3c2n(C)c(=O)n3C2CCC(=O)NC2=O)CC1)c1ccc(-n2cc(NC(=O)c3cnn4cccnc34)c(C(F)F)n2)cc1 (centres unmarked) [I-700]
> 200	< 10	Cn1c(=O)n(C2CCC(=O)NC2=O)c2cccc(N3CCN(C4CCN(C[C@H]5CC[C@H](n6cc(NC(=O)c7cnn8ccc(N9C[C@H]%10C[C@@H]9CO%10)nc78)c(C(F)F)n6)CC5)CC4(F)F)CC3)c21 (some centres unmarked) [I-701]
> 200	10 to 100	Cn1c(=O)n(C2CCC(=O)NC2=O)c2cccc(CN3CC4(CCN(Cc5ccc(-n6cc(NC(=O)c7cnn8ccc(N9C[C@H]%10C[C@@H]9CO%10)nc78)c(C(F)F)n6)cc5)CC4)C3)c21 (some centres unmarked) [I-702]
> 200	< 10	Cn1c(=O)n(C2CCC(=O)NC2=O)c2cccc(C#CCN3CCN(C[C@H]4CC[C@H](n5cc(NC(=O)c6cnn7ccc(N8CCOC(F)(F)C8)nc67)c(C(F)F)n5)CC4)CC3)c21 (some centres unmarked) [I-703]
> 200	10 to 100	COc1cc2nn([C@H]3CC[C@H](CN4CC=C(c5ccc6c(c5)n(C)c(=O)n6C5CCC(=O)NC5=O)C(F)(F)C4)CC3)cc2cc1NC(=O)c1cccc(C(F)(F)F)n1 (some centres unmarked) [I-704]
> 200	< 10	Cn1c(=O)n(C2CCC(=O)NC2=O)c2cccc(C3CCN(C[C@H]4CC[C@H](n5cc6cc(NC(=O)c7cccc(C(F)(F)F)n7)c(C#N)cc6n5)CC4)CC3(F)F)c21 (some centres unmarked) [I-705]
> 200	10 to 100	Cn1c(=O)n(C2CCC(=O)NC2=O)c2cccc(C3=CCN(C[C@H]4CC[C@H](n5cc6cc(NC(=O)c7cccc(C(F)(F)F)n7)ccc6n5)CC4)CC3F)c21 (some centres unmarked) [I-706]
> 200	< 10	Cn1c(=O)n(C2CCC(=O)NC2=O)c2cccc([C@H]3CCN(C[C@H]4CC[C@H](n5cc6cc(NC(=O)c7cccc(C(F)(F)F)n7)ccc6n5)CC4)C[C@@H]3O)c21 (some centres unmarked) [I-707]
> 200	10 to 100	Cn1c(=O)n(C2CCC(=O)NC2=O)c2cccc(C3CCN(C[C@H]4CC[C@H](n5cc6cc(NC(=O)c7cccc(C(F)(F)F)n7)ccc6n5)CC4)CC3(F)F)c21 (some centres unmarked) [I-708]
> 200	10 to 100	O=C1CCN(c2cncc3c(C4CCN(C[C@H]5CC[C@H](n6cc7cc(NC(=O)c8cccc(C(F)(F)F)n8)ccc7n6)CC5)CC4(F)F)cccc23)C(=O)N1 (some centres unmarked) [I-709]
> 200	10 to 100	COc1cc2nn([C@H]3CC[C@H](CN(C)C4CCN(c5cccc6c5n(C)c(=O)n6C5CCC(=O)NC5=O)CC4(F)F)CC3)cc2cc1NC(=O)c1cccc(C(F)(F)F)n1 (some centres unmarked) [I-710]
> 200	< 10	Cn1c(=O)n(C2CCC(=O)NC2=O)c2cccc(C3CCN(C[C@]4(O)CC[C@@H](n5cc6cc(NC(=O)c7cccc(C(F)(F)F)n7)ccc6n5)CC4)CC3)c21 (some centres unmarked) [I-711]
> 200	< 10	Cn1c(=O)n(C2CCC(=O)NC2=O)c2ccc(N3CCN(CC4COC5(C4)CN(C[C@H]4CC[C@H](n6cc(NC(=O)c7cnn8ccc(N9C[C@H]%10C[C@@H]9CO%10)nc78)c(C(F)F)n6)CC4)C5)CC3)cc21 (some centres unmarked) [I-712]
> 200	< 10	Cn1c(=O)n(C2CCC(=O)NC2=O)c2cccc(C3=CCN(C[C@H]4CC[C@H](n5cc6cc(NC(=O)c7cccc(C(F)(F)F)n7)c(C#N)cc6n5)CC4)CC3F)c21 (some centres unmarked) [I-713]
> 200	< 10	Cn1c(=O)n(C2CCC(=O)NC2=O)c2cccc(C#CCO[C@H]3CCN(C[C@H]4CC[C@H](n5cc(NC(=O)c6cnn7ccc(N8CCS(=O)(=O)CC8)nc67)c(C(F)F)n5)CC4)C[C@@H]3F)c21 (some centres unmarked) [I-714]
> 200	< 10	Cn1c(=O)n(C2CCC(=O)NC2=O)c2cccc(C#CCO[C@@H]3CCN(C[C@H]4CC[C@H](n5cc(NC(=O)c6cnn7ccc(N8CCS(=O)(=O)CC8)nc67)c(C(F)F)n5)CC4)C[C@H]3F)c21 (some centres unmarked) [I-715]
> 200	< 10	Cn1c(=O)n(C2CCC(=O)NC2=O)c2cccc(C3CCN(C[C@H]4CC[C@H](n5cc6cc(NC(=O)c7cccc(C#N)n7)ccc6n5)CC4)CC3(F)F)c21 (some centres unmarked) [I-716]
> 200	< 10	Cn1c(=O)n(C2CCC(=O)NC2=O)c2cccc([C@H]3CCN(C[C@H]4CC[C@H](n5cc6cc(NC(=O)c7cccc(C(F)(F)F)n7)ncc6n5)CC4)C[C@@H]3F)c21 (some centres unmarked) [I-717]

DC50 [1] [nM]	DC50 [2] [nM]	SMILES
> 200	< 10	Cn1c(=O)n(C2CCC(=O)NC2=O)c2cccc([C@H]3C[C@H](CO[C@H]4CCN(C[C@H]5CC[C@H](n6cc(NC(=O)c7cnn8ccc(N9C[C@H]%10C[C@@H]9CO%10)nc78)c(C(F)F)n6)CC5)C[C@@H]4F)C3)c21 (some centres unmarked) [I-718]
> 200	< 10	Cn1c(=O)n(C2CCC(=O)NC2=O)c2cccc(C3CCN(C[C@H]4CC[C@H](n5cc6cc(NC(=O)c7cnn8ccc(N9C[C@H]%10C[C@@H]9CO%10)nc78)ccc6n5)CC4)CC3(F)F)c21 (some centres unmarked) [I-719]
> 200	< 10	Cn1c(=O)n(C2CCC(=O)NC2=O)c2cccc(N3CCN([C@@H]4CCN(C[C@H]5CC[C@H](n6cc(NC(=O)c7cnn8ccc(N9C[C@H]%10C[C@@H]9CO%10)nc78)c(C(F)F)n6)CC5)CC4(F)F)CC3)c21 (some centres unmarked) [I-720]
> 200	< 10	Cn1c(=O)n(C2CCC(=O)NC2=O)c2cccc(N3CCN([C@H]4CCN(C[C@H]5CC[C@H](n6cc(NC(=O)c7cnn8ccc(N9C[C@H]%10C[C@@H]9CO%10)nc78)c(C(F)F)n6)CC5)CC4(F)F)CC3)c21 (some centres unmarked) [I-721]
> 200	< 10	Cn1c(=O)n(C2CCC(=O)NC2=O)c2cccc([C@H]3C[C@H](CO[C@@H]4CCN(C[C@H]5CC[C@H](n6cc(NC(=O)c7cnn8ccc(N9C[C@H]%10C[C@@H]9CO%10)nc78)c(C(F)F)n6)CC5)C[C@@H]4F)C3)c21 (some centres unmarked) [I-722]
> 200	< 10	Cn1c(=O)n(C2CCC(=O)NC2=O)c2cccc(N3CCN(C4CCN(C[C@H]5CC[C@H](n6cc(NC(=O)c7cnn8ccc(N9CCC%10(COC%10)C9)nc78)c(C(F)F)n6)CC5)CC4(F)F)CC3)c21 (some centres unmarked) [I-723]
> 200	< 10	Cn1c(=O)n(C2CCC(=O)NC2=O)c2ccc(N3CC(CN4CCN(C[C@H]5CC[C@H](n6cc(NC(=O)c7cnn8ccc(N9C[C@H]%10C[C@@H]9CO%10)nc78)c(C(F)F)n6)CC5)CC4)C3)c(F)c21 (some centres unmarked) [I-724]
> 200	> 200	Cn1c(=O)n(C2CCC(=O)NC2=O)c2ccc(N3CC(CO[C@@H]4CCN(CC5CCC(n6cc(NC(=O)c7cnn8ccc(N9C[C@H]%10C[C@@H]9CO%10)nc78)c(C(F)F)n6)CC5)C[C@@H]4F)C3)c(F)c21 (some centres unmarked) [I-725]
> 200	< 10	Cn1c(=O)n(C2CCC(=O)NC2=O)c2cccc(C3=CCN(C[C@H]4CC[C@H](n5cc6cc(NC(=O)c7cccc(C(F)(F)F)n7)c(C(F)F)cc6n5)CC4)CC3F)c21 (some centres unmarked) [I-726]
> 200	< 10	Cc1cccc(C(=O)Nc2ccc3nn([C@H]4CC[C@H](CN5CC[C@@H](c6cccc7c6n(C)c(=O)n7C6CCC(=O)NC6=O)[C@H](F)C5)CC4)cc3c2)n1 (some centres unmarked) [I-727]
> 200	< 10	Cn1c(=O)n(C2CCC(=O)NC2=O)c2cccc(N3CC(O[C@H]4CCN(C[C@H]5CC[C@H](n6cc(NC(=O)c7cnn8ccc(N9C[C@H]%10C[C@@H]9CO%10)nc78)c(C(F)F)n6)CC5)C[C@H]4F)C3)c21 (some centres unmarked) [I-728]
> 200	< 10	CO[C@]1(CN2CCN(C[C@H]3CC[C@H](n4cc(NC(=O)c5cnn6ccc(N7C[C@H]8C[C@@H]7CO8)nc56)c(C(F)F)n4)CC3)CC2)C[C@@H](c2cccc3c2n(C)c(=O)n3C2CCC(=O)NC2=O)C1 (some centres unmarked) [I-729]
> 200	< 10	Cn1c(=O)n(C2CCC(=O)NC2=O)c2cccc(N3CC(N4CCN([C@H]5CC[C@H](n6cc(NC(=O)c7cnn8ccc(N9C[C@H]%10C[C@@H]9CO%10)nc78)c(C(F)F)n6)CC5)CC4)C3)c21 (some centres unmarked) [I-730]
> 200	< 10	Cn1c(=O)n(C2CCC(=O)NC2=O)c2cccc(C3CCN(C[C@H]4CC[C@H](n5cc6cc(NC(=O)c7cccc(C#N)n7)ncc6n5)CC4)CC3F)c21 (some centres unmarked) [I-731]
> 200	< 10	Cn1c(=O)n(C2CCC(=O)NC2=O)c2cccc(N3CC(O[C@@H]4CCN(C[C@H]5CC[C@H](n6cc(NC(=O)c7cnn8ccc(N9C[C@H]%10C[C@@H]9CO%10)nc78)c(C(F)F)n6)CC5)C[C@H]4F)C3)c21 (some centres unmarked) [I-732]
> 200	< 10	Cn1c(=O)n(C2CCC(=O)NC2=O)c2cccc(N3CC(O[C@H]4CCN(C[C@H]5CC[C@H](n6cc(NC(=O)c7cnn8ccc(N9C[C@H]%10C[C@@H]9CO%10)nc78)c(C(F)F)n6)CC5)C[C@@H]4F)C3)c21 (some centres unmarked) [I-733]
> 200	< 10	Cn1c(=O)n(C2CCC(=O)NC2=O)c2cccc(C3CCN(CC4CCC(n5cc6cc(NC(=O)c7cnn8ccc(N9CC%10CC9CO%10)cc78)ncc6n5)CC4)CC3(F)F)c21 (centres unmarked) [I-734]
> 200	< 10	Cn1c(=O)n(C2CCC(=O)NC2=O)c2cccc(N3CCN(C4CCN(C[C@H]5CC[C@H](n6cc(NC(=O)c7cnn8ccc(N9CC%10(COC%10)C9)nc78)c(C(F)F)n6)CC5)CC4(F)F)CC3)c21 (some centres unmarked) [I-735]
